System: cultured canine chondrocytes
Assay: TNFα release in cultured canine chondrocytes challenged with IL1b
Format: cell-based
Conditions: IL1b challenge; FIG. 4
Method: The study involved the use of cultured canine chondrocytes (i.e., cells within the joint that are activated during OA). The canine chondrocytes were subjected to an inflammatory challenge in the form of cytokine Interleukin 1 beta (“IL1b”). The canine chondrocytes were then treated with various anti-inflammatory compounds including Alpha-GEE; glucosamine; a TNFα receptor antagonist; and a NSAID (Rimadyl). Alpha-GEE was administered in concentrations ranging from 10 μM to 1000 μM. The resulting effects of the various treatments on both PGE2 release and TNFα release were examined.
A similar time dependent decrease in TNFα release was also observed in chondrocytes treated with Alpha-GEE, as shown in FIG. 4.

SMILES | effect on TNFα release in canine chondrocytes
CC(C(=O)O)c1ccc2c(c1)[nH]c1ccc(Cl)cc12 (centres unmarked) [Rimadyl] | significant increase
N[C@H]1C(O)O[C@H](CO)[C@@H](O)[C@@H]1O (some centres unmarked) [glucosamine] | no significant effect
